Results on one compound are retold here after article PMC11600510 (Journal of Chemical Information and Modeling, 2024).

Structures are written as SMILES.

One data set addresses T1, CYP2C19 (Homo sapiens, UniProt P33261).
T1 construct: purchased Thermo Fisher Scientific; host or cells: Baculosomes
Put plainly: Isozyme-specific CYP450 inhibition. The conditions noted are these: probe fluorescent substrate (not named). In kind it is in vitro ADME. As to the method:
(§1) For this, the activity of CYP1A2, CYP2A6, CYP2B6, CYP2C9, CYP2C19, CYP2D6, and CYP3A4 was assessed after the administration of CKP-25 at 1 μM to determine (a) the oxidative (CYP-mediated) metabolic stability profile in question and (b) the enzyme metabolizing isoforms responsible (the test system consists of recombinant human CYP450 and CYP450 reductase; cytochrome b5 may also be present). Herein, no concentration-dependent effects were reported. […] No product inhibition or mechanism-based inactivation of the CYP450 isoenzymes in question was obtained. Test-compounds with poor solubility can show artificially low CYP450 inhibition and thus, chemical entities with potential drug–drug interaction toxicities may be overlooked.
(§2) Human cytochrome P450 (CYP450) isoenzymes were expressed in Baculosomes obtained from Thermo Fisher Scientific (Waltham, MA, USA). Reagents were handled and prepared following the manufacturer’s guidelines. Compound CKP-25 was evaluated at a concentration of 1 μM according to our established standard operating procedures and protocols as described previously.[127],[128] The enzymatic activity of various CYP450 isoforms (CYP1A2, CYP2A6, CYP2B6, CYP2C9, CYP2C19, CYP2D6, and CYP3A4) was measured, considering the kinetic model for each isoform. The reactions were conducted in triplicate at 20 °C. NADP+ (10 mM in 100 mM potassium phosphate, pH 8.0) was converted to NADPH using a regeneration system containing glucose-6-phosphate (333 mM) and glucose-6-phosphate dehydrogenase (30 U/mL in 100 mM potassium phosphate, pH 8.0). Upon the addition of the fluorescent substrate, signal monitoring was performed immediately (within 2 min) using appropriate excitation and emission wavelengths, recorded by an Agilent BioTek Lionheart FX (Winooski, VT, USA). CYP450 inhibition (%) was calculated based on the reaction rates (fluorescence intensity changes per unit time). In total, n = 60 meaurements per minute were recorded over a 60 min period. [drawing 2] where X, the rate observed in the presence of a test-compound; A, the rate observed in the presence of negative (solvent, DMSO) control.

The next data set addresses T2, CYP2A6 (Homo sapiens, UniProt P11509).
T2 construct: purchased Thermo Fisher Scientific; host or cells: Baculosomes
T2 sequence (P11509 1-494): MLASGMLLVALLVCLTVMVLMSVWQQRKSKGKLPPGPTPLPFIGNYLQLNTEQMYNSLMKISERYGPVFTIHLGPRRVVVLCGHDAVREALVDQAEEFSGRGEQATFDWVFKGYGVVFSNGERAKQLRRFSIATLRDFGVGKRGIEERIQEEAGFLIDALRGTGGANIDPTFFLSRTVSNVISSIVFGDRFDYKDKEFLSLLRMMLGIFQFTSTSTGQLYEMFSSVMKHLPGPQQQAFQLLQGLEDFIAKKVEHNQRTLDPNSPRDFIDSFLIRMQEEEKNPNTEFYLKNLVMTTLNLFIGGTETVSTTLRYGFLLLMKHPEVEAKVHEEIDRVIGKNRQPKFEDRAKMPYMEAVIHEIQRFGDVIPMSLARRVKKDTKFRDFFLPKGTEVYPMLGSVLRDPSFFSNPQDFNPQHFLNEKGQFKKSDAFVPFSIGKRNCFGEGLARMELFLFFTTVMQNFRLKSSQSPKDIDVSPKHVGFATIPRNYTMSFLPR
Briefly: Isozyme-specific CYP450 inhibition. The conditions noted are these: recombinant human CYP2A6 with CYP450 reductase (Baculosomes), probe fluorescent substrate (not named). In kind it is in vitro ADME. As to the method:
as §1, §2

The target of a further data set is T3, CYP2D6 (Homo sapiens, UniProt P10635).
T3 construct: purchased Thermo Fisher Scientific; host or cells: Baculosomes
Briefly: Isozyme-specific CYP450 inhibition. The conditions noted are these: recombinant human CYP2D6 with CYP450 reductase (Baculosomes), probe fluorescent substrate (not named). In kind it is in vitro ADME. As to the method: as §1, §2

In another data set the target is T4, CYP3A4 (Homo sapiens, UniProt P08684).
T4 construct: purchased Thermo Fisher Scientific; host or cells: Baculosomes
Briefly: Isozyme-specific CYP450 inhibition. In kind it is in vitro ADME. As to conditions: recombinant human CYP3A4 with CYP450 reductase (Baculosomes), probe fluorescent substrate (not named). As to the method: as §1, §2

The next data set addresses T5, CYP2C9 (Homo sapiens, UniProt P11712).
T5 construct: purchased Thermo Fisher Scientific; host or cells: Baculosomes
Briefly: Isozyme-specific CYP450 inhibition. In kind it is in vitro ADME. The conditions noted are these: recombinant human CYP2C9 with CYP450 reductase (Baculosomes), probe fluorescent substrate (not named). As to the method: as §1, §2

The next data set addresses T6, CYP2B6 (Homo sapiens, UniProt P20813).
T6 construct: purchased Thermo Fisher Scientific; host or cells: Baculosomes
T6 sequence (P20813 1-491): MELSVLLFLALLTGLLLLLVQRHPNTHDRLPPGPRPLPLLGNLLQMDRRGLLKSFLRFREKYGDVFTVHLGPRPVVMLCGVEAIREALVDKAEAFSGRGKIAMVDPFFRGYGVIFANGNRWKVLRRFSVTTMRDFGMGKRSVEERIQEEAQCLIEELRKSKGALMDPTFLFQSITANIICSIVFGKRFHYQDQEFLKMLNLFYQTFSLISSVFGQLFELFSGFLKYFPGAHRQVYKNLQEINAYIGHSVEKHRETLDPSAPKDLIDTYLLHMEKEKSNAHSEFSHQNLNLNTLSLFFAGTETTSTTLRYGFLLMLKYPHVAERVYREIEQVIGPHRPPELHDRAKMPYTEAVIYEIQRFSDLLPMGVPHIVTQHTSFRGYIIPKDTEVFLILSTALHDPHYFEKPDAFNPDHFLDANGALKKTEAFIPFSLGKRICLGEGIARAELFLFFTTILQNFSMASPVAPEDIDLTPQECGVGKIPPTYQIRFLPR
Put plainly: Isozyme-specific CYP450 inhibition. As to conditions: recombinant human CYP2B6 with CYP450 reductase (Baculosomes), probe fluorescent substrate (not named). In kind it is in vitro ADME. As to the method:
as §1, §2

For a further data set, the target named is T7, CYP1A2 (Homo sapiens, UniProt P05177).
T7 construct: purchased Thermo Fisher Scientific; host or cells: Baculosomes
T7 sequence (P05177 2-516 limits assumed): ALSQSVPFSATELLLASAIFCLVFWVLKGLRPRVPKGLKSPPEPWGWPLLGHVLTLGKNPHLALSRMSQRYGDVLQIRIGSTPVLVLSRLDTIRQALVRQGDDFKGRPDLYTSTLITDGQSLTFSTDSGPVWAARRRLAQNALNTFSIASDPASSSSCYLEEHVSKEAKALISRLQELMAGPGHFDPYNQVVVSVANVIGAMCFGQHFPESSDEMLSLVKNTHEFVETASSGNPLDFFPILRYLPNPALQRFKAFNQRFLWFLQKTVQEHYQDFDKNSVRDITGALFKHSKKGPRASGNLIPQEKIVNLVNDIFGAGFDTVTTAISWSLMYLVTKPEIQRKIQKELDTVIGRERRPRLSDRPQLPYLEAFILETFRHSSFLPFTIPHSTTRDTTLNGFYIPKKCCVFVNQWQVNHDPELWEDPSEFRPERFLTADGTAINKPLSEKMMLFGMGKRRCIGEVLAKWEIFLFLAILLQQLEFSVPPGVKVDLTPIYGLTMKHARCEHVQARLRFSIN
Briefly: Isozyme-specific CYP450 inhibition. The conditions noted are these: recombinant human CYP1A2 with CYP450 reductase (Baculosomes), probe fluorescent substrate (not named). In kind it is in vitro ADME. As to the method: as §1, §2

The test system of another data set is SARS-CoV-2. In kind it is cell-based.

T5 sequence (P11712 whole entry): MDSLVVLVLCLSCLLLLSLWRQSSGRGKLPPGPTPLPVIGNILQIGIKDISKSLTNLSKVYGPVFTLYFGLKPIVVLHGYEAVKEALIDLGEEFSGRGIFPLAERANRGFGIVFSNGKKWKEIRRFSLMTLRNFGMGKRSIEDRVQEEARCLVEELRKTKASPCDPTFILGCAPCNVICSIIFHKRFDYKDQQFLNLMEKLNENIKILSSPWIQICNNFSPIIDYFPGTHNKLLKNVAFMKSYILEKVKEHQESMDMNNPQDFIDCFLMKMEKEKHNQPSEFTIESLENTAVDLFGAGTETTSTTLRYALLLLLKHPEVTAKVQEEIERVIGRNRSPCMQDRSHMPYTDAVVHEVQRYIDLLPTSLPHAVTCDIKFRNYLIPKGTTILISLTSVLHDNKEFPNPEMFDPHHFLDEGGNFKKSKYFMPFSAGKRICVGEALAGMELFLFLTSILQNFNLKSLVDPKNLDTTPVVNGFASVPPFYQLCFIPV
T4 sequence (P08684 2-503 limits assumed): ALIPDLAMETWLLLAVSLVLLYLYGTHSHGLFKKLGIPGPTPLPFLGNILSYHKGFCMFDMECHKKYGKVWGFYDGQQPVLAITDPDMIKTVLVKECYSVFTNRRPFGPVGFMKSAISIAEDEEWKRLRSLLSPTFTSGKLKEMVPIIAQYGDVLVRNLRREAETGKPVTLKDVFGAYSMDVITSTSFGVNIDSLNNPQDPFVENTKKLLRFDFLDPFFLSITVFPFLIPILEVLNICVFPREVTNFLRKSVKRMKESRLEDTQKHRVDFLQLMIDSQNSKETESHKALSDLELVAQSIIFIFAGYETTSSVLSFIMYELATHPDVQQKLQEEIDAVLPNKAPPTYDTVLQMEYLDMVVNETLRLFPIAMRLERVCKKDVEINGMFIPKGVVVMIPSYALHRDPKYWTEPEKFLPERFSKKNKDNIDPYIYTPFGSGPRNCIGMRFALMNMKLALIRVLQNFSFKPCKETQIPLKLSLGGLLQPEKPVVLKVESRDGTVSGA
T1 sequence (P33261 whole entry): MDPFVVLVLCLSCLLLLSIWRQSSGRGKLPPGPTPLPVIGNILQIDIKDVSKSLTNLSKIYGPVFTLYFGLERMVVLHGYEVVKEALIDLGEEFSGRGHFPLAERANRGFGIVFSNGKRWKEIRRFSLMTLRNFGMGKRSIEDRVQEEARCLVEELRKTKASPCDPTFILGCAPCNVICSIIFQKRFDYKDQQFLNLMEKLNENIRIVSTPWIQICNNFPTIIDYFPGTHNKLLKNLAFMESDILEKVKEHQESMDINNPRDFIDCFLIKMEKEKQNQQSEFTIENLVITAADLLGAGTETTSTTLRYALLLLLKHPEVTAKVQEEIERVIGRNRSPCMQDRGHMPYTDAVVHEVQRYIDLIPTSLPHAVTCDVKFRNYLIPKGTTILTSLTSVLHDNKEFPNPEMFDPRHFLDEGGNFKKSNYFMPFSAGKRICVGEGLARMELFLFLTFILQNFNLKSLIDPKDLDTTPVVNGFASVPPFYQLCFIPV
T3 sequence (P10635 whole entry): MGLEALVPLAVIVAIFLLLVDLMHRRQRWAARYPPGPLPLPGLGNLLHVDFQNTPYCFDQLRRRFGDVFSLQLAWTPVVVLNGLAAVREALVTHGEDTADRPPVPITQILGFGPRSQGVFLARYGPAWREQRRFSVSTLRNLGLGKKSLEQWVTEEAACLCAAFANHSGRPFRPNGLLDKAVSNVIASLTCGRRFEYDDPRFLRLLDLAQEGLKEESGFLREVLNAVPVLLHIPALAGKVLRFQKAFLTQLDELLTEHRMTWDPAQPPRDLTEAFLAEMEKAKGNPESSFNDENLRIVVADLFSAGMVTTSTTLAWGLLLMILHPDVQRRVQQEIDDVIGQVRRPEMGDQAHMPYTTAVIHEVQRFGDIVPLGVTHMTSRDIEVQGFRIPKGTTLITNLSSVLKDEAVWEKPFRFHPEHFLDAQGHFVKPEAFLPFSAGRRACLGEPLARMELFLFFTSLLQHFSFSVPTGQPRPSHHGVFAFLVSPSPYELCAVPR

A word on the inhibition: it is the relative decrease from the control value, in per cent. On to `COc1cccc2c1ncn2Cc1ccc2ccccc2c1` [CKP-25, 4-Methoxy-1-(naphthalen-2-ylmethyl)-1H-benzo[d]imidazole], for which the inhibition at 60 min, 1 µM on CYP2C19 stood at 20%; on CYP2A6, 6%; on CYP2D6 it was 1%; at CYP3A4 it was 3%; on CYP2C9, 11%; on CYP2B6 it was 0%. Also, the inhibition at 60 min, 1 µM on CYP1A2 was found to be 0%. The “effect on viral load in the cell culture supernatant (in words)” value in the data set on SARS-CoV-2 is “reduced the viral load”.
